Test results published in ChEMBL document CHEMBL1909294, “Translating clinical findings into knowledge in drug safety evaluation--drug induced liver injury prediction system (DILIps)” (PLoS Comput Biol, 2011).

Key:
Hepatotoxicity [1] = tested on: Hepatotoxicity;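 as to HepSE cholecystitis: Cholecystitis-related hepatic side effect score drawn from the DILIps (drug-induced liver injury prediction) training data set; call rule not given here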;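 as to HepSE cholelithiasis: hepatic side effect score for cholelithiasis, drawn from the DILIps training data for predicting drug-induced liver injury; call rule not given here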;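 as to HepSE cirrhosis: cirrhosis hepatic side effect score taken from the DILIps (drug-induced liver injury prediction) training set; call rule not given here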;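 as to HepSE hepatitis: Hepatitis-related hepatic side effect score taken from the training data of DILIps, a prediction system for drug-induced liver injury; call rule not given here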;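 as to HepSE hepatomegaly: hepatic side effect score for hepatomegaly, taken from the training set of the DILIps drug-induced liver injury prediction system; call rule not given here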; as to HepSE liver disease: call rule not given here;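 as to HepSE liver function tests abnormal: hepatic side effect score taken from the DILIps (drug-induced liver injury prediction system) training data, here covering abnormal liver function test findings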
Hepatotoxicity [2] = tested on: Hepatotoxicity; remark: listed apart in the source;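 as to HepSE cholecystitis: Cholecystitis-related hepatic side effect score drawn from the DILIps (drug-induced liver injury prediction) training data set; call rule not given here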;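 as to HepSE cholelithiasis: hepatic side effect score for cholelithiasis, drawn from the DILIps training data for predicting drug-induced liver injury; call rule not given here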;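 as to HepSE cirrhosis: cirrhosis hepatic side effect score taken from the DILIps (drug-induced liver injury prediction) training set; call rule not given here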;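 as to HepSE hepatitis: Hepatitis-related hepatic side effect score taken from the training data of DILIps, a prediction system for drug-induced liver injury; call rule not given here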;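 as to HepSE hepatomegaly: hepatic side effect score for hepatomegaly, taken from the training set of the DILIps drug-induced liver injury prediction system; call rule not given here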; as to HepSE liver disease: call rule not given here
Hepatotoxicity [3] = tested on: Hepatotoxicity; remark: listed apart in the source;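 as to HepSE cholecystitis: Cholecystitis-related hepatic side effect score drawn from the DILIps (drug-induced liver injury prediction) training data set; call rule not given here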;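 as to HepSE cholelithiasis: hepatic side effect score for cholelithiasis, drawn from the DILIps training data for predicting drug-induced liver injury; call rule not given here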;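 as to HepSE cirrhosis: cirrhosis hepatic side effect score taken from the DILIps (drug-induced liver injury prediction) training set; call rule not given here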;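 as to HepSE hepatitis: Hepatitis-related hepatic side effect score taken from the training data of DILIps, a prediction system for drug-induced liver injury; call rule not given here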;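 as to HepSE hepatomegaly: hepatic side effect score for hepatomegaly, taken from the training set of the DILIps drug-induced liver injury prediction system; call rule not given here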; as to HepSE liver disease: call rule not given here
Hepatotoxicity [4] = tested on: Hepatotoxicity; remark: listed apart in the source;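 as to HepSE cholecystitis: Cholecystitis-related hepatic side effect score drawn from the DILIps (drug-induced liver injury prediction) training data set; call rule not given here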;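 as to HepSE cholelithiasis: hepatic side effect score for cholelithiasis, drawn from the DILIps training data for predicting drug-induced liver injury; call rule not given here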;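 as to HepSE cirrhosis: cirrhosis hepatic side effect score taken from the DILIps (drug-induced liver injury prediction) training set; call rule not given here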;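 as to HepSE hepatitis: Hepatitis-related hepatic side effect score taken from the training data of DILIps, a prediction system for drug-induced liver injury; call rule not given here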;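 as to HepSE hepatomegaly: hepatic side effect score for hepatomegaly, taken from the training set of the DILIps drug-induced liver injury prediction system; call rule not given here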; as to HepSE liver disease: call rule not given here
Hepatotoxicity [5] = tested on: Hepatotoxicity; remark: listed apart in the source; as to HepSE liver disease: call rule not given here
Hepatotoxicity [6] = tested on: Hepatotoxicity; remark: listed apart in the source; as to HepSE liver disease: call rule not given here
Hepatotoxicity [7] = tested on: Hepatotoxicity; remark: listed apart in the source
Hepatotoxicity [8] = tested on: Hepatotoxicity; remark: listed apart in the source
Hepatotoxicity [9] = tested on: Hepatotoxicity; remark: listed apart in the source
Hepatotoxicity [10] = tested on: Hepatotoxicity; remark: listed apart in the source
Hepatotoxicity [11] = tested on: Hepatotoxicity; remark: listed apart in the source
Hepatotoxicity [12] = tested on: Hepatotoxicity; remark: listed apart in the source
Hepatotoxicity [13] = tested on: Hepatotoxicity; remark: listed apart in the source
Hepatotoxicity [14] = tested on: Hepatotoxicity; remark: listed apart in the source

| SMILES | HepSE_liver disease (Hepatotoxicity [1]; Liver) | HepSE_hepatitis (Hepatotoxicity [2]; Liver) | HepSE_cirrhosis (Hepatotoxicity [3]; Liver) | HepSE_hepatomegaly (Hepatotoxicity [4]; Liver) | HepSE_bilirubinemia (Hepatotoxicity [5]; Liver) | HepSE_cholelithiasis (Hepatotoxicity [6]; Liver) | HepSE_liver disease (Hepatotoxicity [1]) | HepSE_hepatitis (Hepatotoxicity [2]) | HepSE_cirrhosis (Hepatotoxicity [3]) | HepSE_hepatomegaly (Hepatotoxicity [4]) | HepSE_bilirubinemia (Hepatotoxicity [5]) | HepSE_cholelithiasis (Hepatotoxicity [6]) | HepSE_cholecystitis (Hepatotoxicity [7]) | HepSE_liver function tests abnormal (Hepatotoxicity [8]) | HepSE_liver fatty (Hepatotoxicity [9]) | HepSE_elevated liver function tests (Hepatotoxicity [10]) | HepSE_jaundice (Hepatotoxicity [11]) | HepSE_hepatic failure (Hepatotoxicity [12]) | HepSE_hepatic necrosis (Hepatotoxicity [13]) | HepSE_Combined Scores (Hepatotoxicity [14]) | also measured |
| --- | --- | --- | --- | --- | --- | --- | --- | --- | --- | --- | --- | --- | --- | --- | --- | --- | --- | --- | --- | --- | --- |
| O=C1CN(/N=C/c2ccc([N+](=O)[O-])o2)C(=O)N1 [NITROFURANTOIN] | 0 | 1 | 0 | 0 | 0 | 0 |  |  |  |  |  |  |  |  |  |  |  |  |  |  | HepSE_cholecystitis (Hepatotoxicity [7]; Liver): 0; HepSE_liver function tests abnormal (Hepatotoxicity [8]; Liver): 0; HepSE_liver fatty (Hepatotoxicity [9]; Liver): 0; HepSE_elevated liver function tests (Hepatotoxicity [10]; Liver): 0; HepSE_jaundice (Hepatotoxicity [11]; Liver): 1; HepSE_hepatic failure (Hepatotoxicity [12]; Liver): 0; HepSE_hepatic necrosis (Hepatotoxicity [13]; Liver): 1; HepSE_Combined Scores (Hepatotoxicity [14]; Liver): 3 |
| COc1cc(C(=O)NS(=O)(=O)c2ccccc2C)ccc1Cc1cn(C)c2ccc(NC(=O)OC3CCCC3)cc12 [ZAFIRLUKAST] |  |  |  |  |  |  | 0 | 1 | 0 | 0 | 1 | 0 | 0 | 0 | 0 | 1 | 0 | 1 | 0 | 4 |  |
| CCOC(=O)[C@H](CCc1ccccc1)N[C@@H](C)C(=O)N1Cc2cc(OC)c(OC)cc2C[C@H]1C(=O)O [MOEXIPRIL] |  |  |  |  |  |  | 0 | 1 | 0 | 0 | 0 | 0 | 0 | 0 | 0 | 0 | 0 | 0 | 0 | 1 |  |
| Nc1cc(-c2ccncc2)c[nH]c1=O [INAMRINONE] |  |  |  |  |  |  | 0 | 0 | 0 | 0 | 0 | 0 | 0 | 0 | 0 | 0 | 1 | 0 | 0 | 1 |  |
| CN(C)CCCC1(c2ccc(F)cc2)OCc2cc(C#N)ccc21 (stereo unspecified) [CITALOPRAM] |  |  |  |  |  |  | 0 | 1 | 0 | 0 | 1 | 1 | 1 | 0 | 0 | 0 | 1 | 1 | 1 | 7 |  |
| Cn1cnc([N+](=O)[O-])c1Sc1ncnc2nc[nH]c12 [AZATHIOPRINE] | 0 | 0 | 0 | 0 | 0 | 0 |  |  |  |  |  |  |  |  |  |  |  |  |  |  | HepSE_cholecystitis (Hepatotoxicity [7]; Liver): 0; HepSE_liver function tests abnormal (Hepatotoxicity [8]; Liver): 0; HepSE_liver fatty (Hepatotoxicity [9]; Liver): 0; HepSE_elevated liver function tests (Hepatotoxicity [10]; Liver): 0; HepSE_jaundice (Hepatotoxicity [11]; Liver): 0; HepSE_hepatic failure (Hepatotoxicity [12]; Liver): 0; HepSE_hepatic necrosis (Hepatotoxicity [13]; Liver): 0; HepSE_Combined Scores (Hepatotoxicity [14]; Liver): 0 |
| Nc1c2c(nc3ccccc13)CCCC2 [TACRINE] | 0 | 0 | 0 | 0 | 0 | 1 |  |  |  |  |  |  |  |  |  |  |  |  |  |  | HepSE_cholecystitis (Hepatotoxicity [7]; Liver): 1; HepSE_liver function tests abnormal (Hepatotoxicity [8]; Liver): 0; HepSE_liver fatty (Hepatotoxicity [9]; Liver): 0; HepSE_elevated liver function tests (Hepatotoxicity [10]; Liver): 0; HepSE_jaundice (Hepatotoxicity [11]; Liver): 0; HepSE_hepatic failure (Hepatotoxicity [12]; Liver): 0; HepSE_hepatic necrosis (Hepatotoxicity [13]; Liver): 0; HepSE_Combined Scores (Hepatotoxicity [14]; Liver): 2 |
| Cc1ccc(Cl)c(Nc2ccccc2C(=O)O)c1Cl [MECLOFENAMIC ACID] |  |  |  |  |  |  | 0 | 0 | 0 | 0 | 0 | 0 | 0 | 0 | 0 | 0 | 1 | 0 | 0 | 1 |  |
| C[C@H]1C[C@H]2[C@@H]3CCC4=CC(=O)C=C[C@]4(C)[C@@]3(F)[C@@H](O)C[C@]2(C)[C@@]1(O)C(=O)CCl [CLOBETASOL] |  |  |  |  |  |  | 0 | 0 | 0 | 0 | 0 | 0 | 0 | 0 | 0 | 0 | 0 | 0 | 0 | 0 |  |
